{"source": "paper PMC5248971", "about": "(Science signaling, 2016)", "target": "T1, OpuCA (Staphylococcus aureus, UniProt A0A0H2XHM3)", "T1 sequence (A0A0H2XHM3 1-408)": "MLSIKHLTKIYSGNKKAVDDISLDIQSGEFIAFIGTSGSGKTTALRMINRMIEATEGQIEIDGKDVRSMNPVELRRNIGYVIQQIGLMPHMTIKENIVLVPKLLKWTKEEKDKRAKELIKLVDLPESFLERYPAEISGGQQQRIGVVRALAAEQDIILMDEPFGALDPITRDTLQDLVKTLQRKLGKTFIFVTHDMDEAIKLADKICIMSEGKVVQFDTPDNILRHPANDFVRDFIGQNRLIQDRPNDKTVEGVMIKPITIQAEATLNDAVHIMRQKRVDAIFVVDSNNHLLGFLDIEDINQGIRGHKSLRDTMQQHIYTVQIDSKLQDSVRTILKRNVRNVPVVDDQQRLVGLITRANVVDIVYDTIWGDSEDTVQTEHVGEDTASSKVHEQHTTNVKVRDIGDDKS", "assay_type": "binding"}
{"smiles": "Nc1ncnc2c1ncn2[C@@H]1O[C@@H]2COP(=O)(O)O[C@H]3[C@@H](O)[C@H](n4cnc5c(N)ncnc54)O[C@@H]3COP(=O)(O)O[C@H]2[C@H]1O", "note": "[c-di-AMP]", "values": [{"measurement": "Kd", "value": "2460 ± 140", "unit": "nM"}]}
